The nature of the experiment: Inhibitory activity against beta-glucosidase of sweet almond.

Molecules are shown by their SMILES.

Usually Ki stands for the equilibrium dissociation constant of an inhibitor or competing ligand from its target. A higher Ki goes with a looser hold on the target. `C[C@@H]1NC[C@@H](CO)[C@@H](O)[C@@H]1O` [5-Hydroxymethyl-2-methyl-piperidine-3,4-diol] came in with a Ki of 2100 nM.

(Values after BindingDB's records for doi:10.1016/s0960-894x(99)00042-6 (1999).)
